Reference: ChEMBL document CHEMBL2150931, “Design, synthesis, and biological activity of a novel series of human sirtuin-2-selective inhibitors” (J Med Chem, 2012)

Columns and labels:
[1] = molecular target: T1, Polyamine deacetylase HDAC10 (Homo sapiens, UniProt Q969S8); experiment: Inhibition of HDAC10
T1 sequence (Q969S8 whole entry): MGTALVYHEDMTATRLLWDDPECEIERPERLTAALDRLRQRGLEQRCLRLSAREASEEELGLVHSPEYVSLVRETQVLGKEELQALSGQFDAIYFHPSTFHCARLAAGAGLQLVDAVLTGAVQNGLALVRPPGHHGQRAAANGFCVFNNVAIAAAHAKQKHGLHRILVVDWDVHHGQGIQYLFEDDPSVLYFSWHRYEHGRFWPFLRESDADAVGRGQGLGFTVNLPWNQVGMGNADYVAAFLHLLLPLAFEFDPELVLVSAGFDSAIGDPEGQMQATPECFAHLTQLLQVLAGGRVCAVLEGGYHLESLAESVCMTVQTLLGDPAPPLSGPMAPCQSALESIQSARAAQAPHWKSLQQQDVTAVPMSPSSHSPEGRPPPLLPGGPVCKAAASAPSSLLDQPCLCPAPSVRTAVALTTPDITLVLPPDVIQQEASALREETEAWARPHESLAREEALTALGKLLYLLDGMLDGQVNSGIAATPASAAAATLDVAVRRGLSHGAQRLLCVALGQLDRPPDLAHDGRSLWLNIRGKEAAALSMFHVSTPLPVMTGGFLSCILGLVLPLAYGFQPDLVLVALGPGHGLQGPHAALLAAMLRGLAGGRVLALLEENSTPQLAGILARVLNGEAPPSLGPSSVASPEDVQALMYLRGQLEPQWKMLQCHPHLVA

Histone deacetylase 3 = Histone deacetylase 3 (Homo sapiens, UniProt O15379); experiment: Inhibition of HDAC3
Histone deacetylase 3, sequence (O15379 whole entry): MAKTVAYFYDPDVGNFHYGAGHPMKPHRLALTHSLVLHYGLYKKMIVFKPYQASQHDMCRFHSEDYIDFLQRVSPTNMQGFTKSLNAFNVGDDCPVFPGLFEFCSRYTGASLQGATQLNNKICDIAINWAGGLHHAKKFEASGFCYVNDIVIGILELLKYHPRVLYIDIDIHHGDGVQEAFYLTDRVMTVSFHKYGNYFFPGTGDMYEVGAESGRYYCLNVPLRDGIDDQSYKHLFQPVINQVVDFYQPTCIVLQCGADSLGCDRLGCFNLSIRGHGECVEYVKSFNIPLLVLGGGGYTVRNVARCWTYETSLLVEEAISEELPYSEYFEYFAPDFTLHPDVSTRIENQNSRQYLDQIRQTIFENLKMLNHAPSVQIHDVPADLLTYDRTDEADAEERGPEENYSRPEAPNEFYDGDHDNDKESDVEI

Histone deacetylase 2 = Histone deacetylase 2 (Homo sapiens, UniProt Q92769); experiment: Inhibition of HDAC2
Histone deacetylase 2, sequence (Q92769 whole entry): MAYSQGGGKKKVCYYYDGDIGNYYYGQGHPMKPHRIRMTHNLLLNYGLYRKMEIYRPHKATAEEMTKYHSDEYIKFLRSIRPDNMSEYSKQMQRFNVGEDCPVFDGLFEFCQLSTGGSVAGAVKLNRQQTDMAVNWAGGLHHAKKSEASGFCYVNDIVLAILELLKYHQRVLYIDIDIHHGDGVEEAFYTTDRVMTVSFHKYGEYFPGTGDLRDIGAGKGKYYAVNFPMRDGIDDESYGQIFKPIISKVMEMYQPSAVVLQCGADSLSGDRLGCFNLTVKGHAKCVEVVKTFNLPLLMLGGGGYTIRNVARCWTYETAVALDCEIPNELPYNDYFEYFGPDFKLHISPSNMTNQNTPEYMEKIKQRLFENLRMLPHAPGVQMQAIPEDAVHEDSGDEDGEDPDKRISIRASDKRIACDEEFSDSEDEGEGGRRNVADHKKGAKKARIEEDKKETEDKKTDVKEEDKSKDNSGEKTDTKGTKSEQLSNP

[2] = molecular target: T2, NAD-dependent protein deacetylase sirtuin-3, mitochondrial (Homo sapiens, UniProt Q9NTG7); experiment: Inhibition of human recombinant SIRT3 using Fluor de Lys-SIRT as substrate incubated for 60 mins prior to substrate addition measured after 60 mins by fluorimetric analysis
T2 sequence (Q9NTG7 whole entry): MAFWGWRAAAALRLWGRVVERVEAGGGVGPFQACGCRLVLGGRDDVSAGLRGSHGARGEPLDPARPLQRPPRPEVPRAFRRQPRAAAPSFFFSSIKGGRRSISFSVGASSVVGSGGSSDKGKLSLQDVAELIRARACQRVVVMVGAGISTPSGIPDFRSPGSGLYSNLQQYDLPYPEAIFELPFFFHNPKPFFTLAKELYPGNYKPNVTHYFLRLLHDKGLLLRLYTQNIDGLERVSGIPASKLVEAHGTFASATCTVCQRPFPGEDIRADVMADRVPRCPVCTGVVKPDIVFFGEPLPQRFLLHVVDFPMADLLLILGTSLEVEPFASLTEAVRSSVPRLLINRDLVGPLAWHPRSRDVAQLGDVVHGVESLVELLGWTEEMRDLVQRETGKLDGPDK

[3] = molecular target: T3, NAD-dependent protein deacetylase sirtuin-2 (Homo sapiens) (UniProt Q8IXJ6); experiment: Binding affinity to recombinant SIRT2 by surface plasmon resonance assay
T3 sequence (whole entry): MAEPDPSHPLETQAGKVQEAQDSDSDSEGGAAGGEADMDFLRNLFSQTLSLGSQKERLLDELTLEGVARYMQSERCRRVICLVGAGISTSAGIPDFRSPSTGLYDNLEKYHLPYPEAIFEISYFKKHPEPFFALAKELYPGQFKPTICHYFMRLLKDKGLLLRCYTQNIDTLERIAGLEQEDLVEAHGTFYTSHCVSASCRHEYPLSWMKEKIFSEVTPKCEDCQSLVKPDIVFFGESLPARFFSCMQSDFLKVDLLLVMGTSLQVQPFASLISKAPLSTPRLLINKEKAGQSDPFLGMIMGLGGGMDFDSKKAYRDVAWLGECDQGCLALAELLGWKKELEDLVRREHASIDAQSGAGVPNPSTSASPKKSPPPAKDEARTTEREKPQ

[4] = molecular target: T4, Protein deacetylase HDAC6 (Homo sapiens, UniProt Q9UBN7); experiment: Inhibition of HDAC6
T4 sequence (Q9UBN7 whole entry): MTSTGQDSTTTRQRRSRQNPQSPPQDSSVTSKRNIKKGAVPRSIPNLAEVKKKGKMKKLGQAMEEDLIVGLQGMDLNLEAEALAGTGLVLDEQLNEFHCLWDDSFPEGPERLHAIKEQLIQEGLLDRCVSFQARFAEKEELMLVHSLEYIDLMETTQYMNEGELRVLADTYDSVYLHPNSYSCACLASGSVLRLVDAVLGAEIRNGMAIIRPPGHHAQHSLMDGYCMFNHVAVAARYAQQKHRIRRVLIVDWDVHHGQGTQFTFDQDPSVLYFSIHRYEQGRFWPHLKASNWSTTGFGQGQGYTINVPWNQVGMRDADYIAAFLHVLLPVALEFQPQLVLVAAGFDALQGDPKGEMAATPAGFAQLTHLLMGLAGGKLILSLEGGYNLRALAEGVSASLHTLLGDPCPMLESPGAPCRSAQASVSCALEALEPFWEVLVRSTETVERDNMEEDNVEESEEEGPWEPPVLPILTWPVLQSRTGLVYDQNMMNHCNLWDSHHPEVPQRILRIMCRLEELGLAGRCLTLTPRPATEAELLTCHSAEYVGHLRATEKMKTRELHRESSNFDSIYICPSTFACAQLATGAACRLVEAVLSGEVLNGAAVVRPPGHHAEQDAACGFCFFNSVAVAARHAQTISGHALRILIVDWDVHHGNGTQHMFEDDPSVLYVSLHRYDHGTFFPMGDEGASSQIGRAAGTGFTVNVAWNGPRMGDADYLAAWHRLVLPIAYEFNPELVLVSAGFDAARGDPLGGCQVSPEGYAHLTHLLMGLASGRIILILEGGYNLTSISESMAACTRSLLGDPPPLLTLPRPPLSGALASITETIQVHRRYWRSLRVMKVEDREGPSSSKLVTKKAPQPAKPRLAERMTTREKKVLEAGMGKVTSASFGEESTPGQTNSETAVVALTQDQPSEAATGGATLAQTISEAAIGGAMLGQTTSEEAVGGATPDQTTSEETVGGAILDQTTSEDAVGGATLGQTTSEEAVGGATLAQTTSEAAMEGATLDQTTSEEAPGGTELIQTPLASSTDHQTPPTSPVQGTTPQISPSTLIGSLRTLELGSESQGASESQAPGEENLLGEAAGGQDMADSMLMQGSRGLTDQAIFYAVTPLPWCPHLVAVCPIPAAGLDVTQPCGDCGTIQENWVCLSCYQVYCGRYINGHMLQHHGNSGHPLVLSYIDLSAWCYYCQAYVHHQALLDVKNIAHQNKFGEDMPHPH

[5] = Metabolic stability in human liver microsomes assessed as compound remaining at 0.5 mg after 15 mins; format: ADME, Microsome; conditions: read-out: Stability

In the case of `NC(=O)c1ccccc1Nc1cccc(OCCc2ccccc2)c1`, the IC50 [1] is reported as over 30 µM, the IC50 (Histone deacetylase 3) is reported as over 30 µM and the IC50 (Histone deacetylase 2) is reported as over 30 µM. The IC50 [2] was over 300 µM, the Activity [3] was “Dose-dependent effect” and the IC50 [4] was over 30 µM. It also gave a remaining at 0.25 h [5] of 64%.
